Test results: patent publication US6586006B2, “Solid delivery systems for controlled release of molecules incorporated therein and methods of making same” (Elan Drug Delivery Limited, priority 1994, dated 2003)

How the values were obtained:
Type in all cases: physicochemical
[1] = Glass transition temperature (Tg) by thermal analysis (DSC)
Excerpt: In general, the tendency to crystallize, from a cooling melt or with reducing solvent, is low. Both devitrification and the fluidity of the melt at temperatures close to Tg, can be controlled by modifiers such as other derivative sugars and certain organic actives. The following two tables, generated as described in the Examples presented below, provide Tg and melting temperature data for a variety of HDCs suitable for use, either alone, or in a composite glass, herein.
Dissolution of synthetic corticosteroid XPDO (described below) into a TOAC melt and quenching to form the vitreous solid dose delivery system was achieved. By looking at the release of MB9 into aqueous solution, these experiments tested the compatibility of the steroid within the glass, subsequent recovery of the steroid and studied the effect that XPDO has on the properties of the delivery system formed looking at the release of MB9 into aqueous solution. TOAC (3.21 g) was pre-melted at 150° C., before being quenched to glass. The glass was finely ground with XPDO (0.15 g) before being remelted. The clear melt was again quenched to yield the composite HDC/active glass. Thermal analysis was carried out on a Rheometric Scientific Differential Scanning Calorimeter (DSC) at a heating rate of 10°/min under a nitrogen atmosphere. The following samples were prepared:
Studies were performed using the synthetic corticosteroid XPDO dissolved in DCM. The solution was spray dried in a Buchi B-191 spray drier, using an inlet temperature of 40° C. […] XPDO was incorporated at 20 wt %. The powder was completely amorphous as confirmed by thermal analysis (Tg=46° C.).

[2] = Controlled release of encapsulated MB9 dye from HDC glass beads/discs; details: FIG. 11
Protocol: In the following experiments, the delivery system was preformulated, whether as a single material, or as a mixed composition. This was carried out by intimately grinding the component HDCs together, followed by careful, controlled melting in a furnace, between 120-140° C. and with normal atmosphere to form melts. The melts were quenched to glass by pouring over a brass block. This glass was then finely ground.
MB9 dye (1 or 5 wt %) was mixed with the ground glass prior to re-melting at 140° C. The melt was quenched to form small glass beads (2.5 mm diameter) which were used in controlled release experiments.
Controlled release of encapsulated dye was monitored by suspending three such beads in 25 or 50 ml of deionized water or PBS solution at ambient temperatures (27-30° C.) or at 37° C., as indicated. The media were undisturbed, except for periodic stirring and were replaced at set intervals with fresh media (generally at 72 hr intervals). Both single HDC glasses and composite HDC glasses were formed. […] The use of other HDCs as glass modifiers in the composite HDC formulations enable the tailoring of the glasses formed to yield the release characteristics desired.
In FIG. 8, the results were obtained from TOAC glass discs (6 mm×2.5 mm) with MB9 dye evenly dispersed therein at 2 wt %. Release was controlled at 25° C. with gentle stirring and media changes at regular intervals. Note the linear release of MB9 dye over a 55 day period. The results presented in FIG. 8 indicate that a pure HDC vitreous delivery vehicle system gives zero-order release rates of guest substances. The results presented in FIGS. 9-14 show variation on release rates by changing the ratios of different HDCs in the delivery systems, changing the carbohydrate backbone length and by changing the nature of the derivative on the carbohydrate backbone. In each instance it is clear that the HDC delivery systems allow a wide range of release rates that can be tailored to the guest substance and the delivery thereof.

[3] = Resistance of glasses to devitrification on exposure to relative humidity
Protocol: Glasses were made by evaporating DCM on a hotplate set at 65° C. from a 25% solutions of TOAC (50% solutions often deposited crystals in the pipette tip). Drying was carried out for 2 hr to be certain of complete dryness. Uniform glasses were produced by using an Eppendorf-type pipette to deliver 100 μl to a slide recently placed on the hotplate and then removing about 50 μl by using the clear/expel volume of the pipette.
XPDO was therefore incorporated into a TOAC glass by dissolving both crystalline TOAC and XPDO in DCM and evaporating the solvent at 70° C. on a hotplate. XPDO was used in proportions of 10% and 20% of total solids in the final TOAC glass.
The resulting glasses were tested for their utility as controlled release matrices in two ways. First, they were assessed for their ability to resist devitrification on exposure to high RH at RT. Second, they were immersed in water or phosphate-buffered saline (PBS) to study their solubility and rate of erosion by surface recrystallization.

[4] = Weight loss and dye release of glucose pentaacetate glass discs in water
Protocol: Another glass disc of similar dimensions was prepared from α-D-glucose pentaacetate and placed in 1 l of water, which was replaced daily. After 7 days, the glass had lost 20% of its original weight. The release rate of the dye was higher in the first day as the release happened mainly from the surface of the glass disc.

[5] = Water resistance and dye release of carboxylate, HDC or plastic coated/coformulated systems
Protocol: These particles were coated by adding them to a saturated solution of zinc palmitate (ZnC16) in toluene and cooling from 60° C. to 30° C. This deposited a layer of ZnC16 on the particles which were then filtered under vacuum to remove the excess ZnC16, washed with acetone and air-dried.
A fine amorphous film (100-200 μm thickness) was formed by casting on silicate glass slides and evaporating off the solvent in a warm air-stream.
Amorphous films were also formed from calcium neodecanoate dissolved in chloroform (0.5 g/10 ml) as described above.
Films of glucose glass incorporating 1 wt % MB9 were formulated by quenching from the melt. These films were coated with thin (100 μm thickness) amorphous metal carboxylate films by evaporation of solution of the carboxylate in chloroform (0.5 g/10 ml). The metal carboxylates used were aluminum hexanoate and octanoate, calcium neodecanoate and magnesium isostearate and neodecanoate. Dissolution of the films was monitored by release of dye into distilled water.

[6] = Enzyme activity after exposure to acetone, dried with or without trehalose; details: dried with 50% trehalose versus without, FIGS. 5A and 5B
Protocol: A 0.1 mg/ml horseradish peroxidase solution or a 1 mg/ml alkaline phosphatase/4 mg/ml bovine serum albumin solution was dried in an FTS Systems freeze drier with or without 50% trehalose. The drier was used as a vacuum drier and the mixtures dried without freezing. Four times the volume of solvent was added and the solution was allowed to evaporate to dryness. The contents were redissolved in 5 milliliters of water, and enzyme activity was assessed, in serial dilution, by commercial ‘kit’ reagents.

[7] = Phycoerythrin fluorescence (functional activity) after solvents, heat or processing
Protocol: Glasses were formed by drying 20% solutions of either trehalose, lactitol, palatinit or GPS, containing MWPB and 1 mg/ml of the fluorescent algal protein phycoerythrin under vacuum (80 mTorr) for 16 hrs. The glasses were ground in a domestic coffee mill to yield a coarse powder which was used to fill the spinning head of a Kando K1 Kandy Floss cotton candy machine (GB Patent No. 1533012). The motor was then switched on and the powdered sugar glass heated at element settings between 5 and 9. Residence time in the spinning head was 2-10 min and a continuous process was maintained by constantly topping up the head.
A 400 μg/ml phycoerythrin solution was freeze-dried in a Labconco freeze-drier with or without 20% trehalose. The dried protein powder was exposed to a number of organic solvents for 72 hrs.
A 400 μg/ml phycoerythrin solution was freeze-dried in the FTS drier with or without 20% trehalose. […]

[8] = freeze-dried powder in pyridine

CC(=O)OC[C@H]1O[C@@H](O[C@H]2[C@H](OC(C)=O)[C@@H](OC(C)=O)C(OC(C)=O)O[C@@H]2COC(C)=O)[C@H](OC(C)=O)[C@@H](OC(C)=O)[C@@H]1OC(C)=O (stereo partly shown) [COAC, cellobiose octaacetate]
Tg/° C. ([1]; single HDC glasses (Table 1)): 65 °C

CCCCCCCCO[C@@H]1O[C@H](COC(C)=O)[C@@H](OC(C)=O)[C@H](OC(C)=O)[C@H]1OC(C)=O [OGTA, 1-0-Octyl-β-D-glucose tetraacetate]
Tg/° C. ([1]; single HDC glasses (Table 1)): −10 °C

CC(=O)OCC1OC(OCC2OC(OC3(COC(C)=O)OC(COC(C)=O)C(OC(C)=O)C3OC(C)=O)C(OC(C)=O)C(OC(C)=O)C2OC(C)=O)C(OC(C)=O)C(OC(C)=O)C1OC(C)=O (stereo not shown) [RUDA, raffinose undecaacetate]
MB9 release profile ([2]; TOAC/RUDA glass spheres into PBS): biphasic release rate
initial fast release of MB9 dye ([2]; glass spheres into PBS, in 5 days): about 60%
Tg/° C. ([1]; single HDC glasses (Table 1)): 55 °C
Tg/° C. ([1]; single and composite HDC glasses, mole ratios of HDCs in glass (Table 2)): 55 °C

CC(=O)OC[C@H]1O[C@@](COC(C)=O)(O[C@H]2O[C@H](COC(C)=O)[C@@H](OC(C)=O)[C@H](OC(C)=O)[C@H]2OC(C)=O)[C@@H](OC(C)=O)[C@@H]1OC(C)=O [SOAC, sucrose octaacetate]
Tg/° C. ([1]; single HDC glasses (Table 1)): 25 °C

CCC(=O)OCC1OC(OC2OC(COC(=O)CC)C(OC(=O)CC)C(OC(=O)CC)C2OC(=O)CC)C(OC(=O)CC)C(OC(=O)CC)C1OC(=O)CC (stereo not shown) [TOPR, trehalose octapropanoate]
Tg/° C. ([1]; single HDC glasses (Table 1)): 3 °C
devitrification at RH from 75% to 95% ([3]; thin glass films and quenched disks, RT, overnight exposure): very susceptible to devitrification at high RH

OC[C@H]1O[C@H](O[C@H]2O[C@H](CO)[C@@H](O)[C@H](O)[C@H]2O)[C@H](O)[C@@H](O)[C@@H]1O [Trehalose, α-D-glucopyranosyl-α-D-glucopyranoside]
recrystallization of glass on storage ([3]; trehalose glass from evaporating water from 50% trehalose solution): gradually recrystallized over a period of several weeks

CC(=O)OC[C@H]1O[C@H](OC(C)=O)[C@H](OC(C)=O)[C@@H](OC(C)=O)[C@@H]1OC(C)=O [α-GPAC, α-glucose pentaacetate]
loss of original weight ([4]; glass disc in 1 l of water replaced daily, after 7 days): 20%
rate of release of encapsulated Acid Blue dye ([4]; glass disc in water, FIG. 7): quite constant
Tg/° C. ([1]; single HDC glasses (Table 1)): 14 °C

CC(=O)OC[C@H]1O[C@@H](OC(C)=O)[C@H](OC(C)=O)[C@@H](OC(C)=O)[C@@H]1OC(C)=O [β-GPAC, β-glucose pentaacetate]
solubility of glass in water [4]: poorly soluble in water
loss of original weight ([4]; glass disc 20 mm diameter, 2.5 mm thick, flowing water, 10 days): about 33%
Tg/° C. ([1]; single HDC glasses (Table 1)): 17 °C

Aluminum hexanoate
devitrification of film during dye release ([5]; 100-200 μm film, 1 wt % MB9, distilled water, 5 hr): No devitrification

alkaline phosphatase
resistance of enzyme activity to acetone [6]: more resistant to acetone

calcium neodecanoate
dye release relative to film dissolution ([5]; film with MB9 in distilled water, 24 hr, Ca2+ by atomic adsorption spectroscopy): followed the dissolution of the films

horseradish peroxidase
resistance of enzyme activity to acetone [6]: more resistant to acetone

magnesium isostearate
delay of dye release ([5]; glucose glass film with 1 wt % MB9 coated with 100 μm metal carboxylate film, distilled water): 10 days

phycoerythrin
fluorescence after exposure to organic solvent ([7]; dimethylsulfoxide, powder solubilized): remained fluorescent
functional activity after storage at 100° C. ([7]; dried in trehalose, one month): no detectable loss of functional activity
time by which fluorescence was lost [7, 8]: ≤ 72 h
time fluorescence remained [7, 8]: 24 to 48 h
fluorescence after exposure to organic solvent ([7]; freeze-dried with 20% trehalose, acetone, acetonitrile chloroform and methanol, 72 hrs): remained fluorescent
biological activity as assessed by fluorescence ([7]; in spun sugar glass microneedles): retention of biological activity
biological functionality by ability to fluoresce ([7]; trehalose glass powder co-melted into carboxylate glass at 95° C.): retained its biological functionality
fluorescence in carboxylate glass formed by evaporation ([7]; trehalose glass powder in 1:1 sodium octanoate/zinc ethylhexanoate, chloroform): remained fluorescent
fluorescence in perspex block ([7]; trehalose glass powder in perspex from chloroform): remained fluorescent

zinc palmitate [ZnC16]
wetting of coated powder in water ([5]; spray-dried trehalose/calcium lactate/MB9 particles coated with ZnC16): remained unwetted in water for at least three days
